{"source": "patent US12630523B2", "about": "“Isoquinoline derivatives for use as antiviral and antitumour agents” (priority 2021, dated 2026)", "key": {"[1]": {"test_system": "SARS-CoV-2 isolate BetaCov/Belgium/GHB-03021/2020", "test": "microbe, parasite or virus in culture", "type": "cell-based", "settings": "1.25 μM (non-toxic compound concentration), n4; for inhibition at 1.25 µM: Severe acute respiratory syndrome coronavirus 2"}, "[2]": {"test_system": "p38, JNK1, ERK1/2, PKC, or Src-like kinases", "settings": "cited from earlier work"}, "[3]": {"test_system": "cell signaling molecules (4E-BP1, p70 S6 kinase, Akt, PTPN14, p53, PD-L1)", "test": "Western blot of cell signaling molecules in CaSki cells", "settings": "CaSki, 6 h; order 10 μM VSP035, Torin 1, Torin 2, rapamycin, 5 μM VSP035, CGP 57380"}, "Plk3": {"target": "Plk3 (Homo sapiens, UniProt Q9H4B4)", "sequence (Q9H4B4 whole entry, species assumed)": "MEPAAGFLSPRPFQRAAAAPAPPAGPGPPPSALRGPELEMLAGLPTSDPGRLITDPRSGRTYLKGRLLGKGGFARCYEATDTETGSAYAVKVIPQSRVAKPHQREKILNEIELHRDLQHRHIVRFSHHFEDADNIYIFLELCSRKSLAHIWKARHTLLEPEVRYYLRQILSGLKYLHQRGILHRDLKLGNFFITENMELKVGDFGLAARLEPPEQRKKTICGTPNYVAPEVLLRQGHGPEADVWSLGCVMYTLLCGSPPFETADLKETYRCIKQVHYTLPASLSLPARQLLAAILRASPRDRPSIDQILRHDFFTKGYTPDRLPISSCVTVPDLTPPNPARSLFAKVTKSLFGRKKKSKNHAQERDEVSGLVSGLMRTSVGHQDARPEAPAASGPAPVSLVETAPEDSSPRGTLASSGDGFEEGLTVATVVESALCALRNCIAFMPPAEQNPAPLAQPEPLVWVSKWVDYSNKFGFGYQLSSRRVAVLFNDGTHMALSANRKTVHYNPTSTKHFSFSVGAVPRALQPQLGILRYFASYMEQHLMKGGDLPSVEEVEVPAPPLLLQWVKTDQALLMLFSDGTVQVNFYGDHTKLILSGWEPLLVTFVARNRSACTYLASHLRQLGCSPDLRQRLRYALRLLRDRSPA", "settings": "cited from earlier work"}, "[4]": {"test_system": "patient derived SARS-2 Coronavirus (COVID19)", "test": "Inhibition of Sars-CoV2 replication by RNA qPCR analysis in Vero E6 cells", "type": "cell-based, SARS-CoV-2", "settings": "7.5 μM, supernatants 3 days after infection, n3", "method": "Vero E6 cells were pre-incubated with the compounds at a concentration of 7.5 μM. The cells were infected with a patient derived SARS-2 Coronavirus (COVID19). Cellular supernatants were collected 3 days after infection and centrifuged at 2000 rpm for 5 min to remove detached cells. Viral RNAs were extracted using a MagNA Pure 24 system (Roche, Germany). SARS-CoV-2 RNA genomes were quantified with the TIB MOLBIOL LightMix Assay SARS-CoV-2 RdRP RTqPCR assay kit with RNA Process Control PCR Kit (Roche). The PCR reaction setup was performed using a BRAND LHS laboratory robot to ensure quality. The amplification was performed with a LightCycler 480 II (Roche). Method used in FIG. 10.\nSARV-CoV-2 antiviral activity by of VSP034 and VSP035 (n3; number of repeat of the assay at each condition). The results are shown in for DMSO (1), 7.5 μM VSP034 (2) and 7.5 μM VSP035 (3), y axis logarithmic scale. […] (FIG. 9)"}, "[5]": {"test_system": "CaSki (ATCC CRM-CRL-1550)", "test": "Monolayer assay using Sulphorhodamine B (SRB) staining, CaSki", "type": "cell-based", "settings": "Homo sapiens, Ca-Ski, read-out: EC50 mean [nM]", "method": "Various cell culture cells grown as monolayers are harvested from exponential growing cultures after treatment with various OC compounds at different concentrations. For this depending on the cell line, 10.000 to 30.000 cells were plated in 96-well flat-bottom microtiter plates. After a 24 h recovery period to allow cells to resume exponential growth, supernatants are discarded and 100 μl of culture medium (eight control wells/plate) or culture medium with the test compound are added by a liquid handling robotic system (Microlab® Starlet, Hamilton) and treatment continued for 72 hrs. Compounds are applied at 9 concentrations and eight wells/concentration). At least three independent experiments are performed. For SRB staining, cells are fixed with SRB01 (Tab. 5) for 1 h at 4° C. (final concentration of TCA=10%) washed with a plate washer (Hydroflex, Tecan©) for five times with H2O; and stained with 100 μl of SRB02 at room temperature for 10 min following 4 washes in SRB03 and finally 100 μl of developer solution SRB04 for 5 minutes with shaking. Optical density is assessed using a plate-reader (Sunrise, Tecan©) at 540 nm.\nConcentrations required for half maximal response of the compound for cell growth inhibition (EC50) is calculated by non-linear regression (log[conc. of inhibitor] versus response (% T/C)) using the analysis software GraphPad Prism®, Prism 5 for windows, version 5.01 (GraphPad Software Inc., CA)."}, "[6]": {"test": "Pharmacokinetics of VSP034 and VSP035 after oral administration of a liposomal formulation", "type": "in vivo, female Sprague-Dawley rats", "settings": "for AUC(0-inf) / CL/F / Cmax / MRT inf / Tmax / Vd/F / half-life: female, Sprague-Dawley, rat, in vivo, po, 100 mg/kg; for AUC(0-inf): AUC0-inf; for MRT inf: MRT0-inf; for Vd/F: Vz/F", "method": "The pharmacokinetic parameters of VSP034 and VSP035 encapsulated as liposomal formulation were assessed after the administration of a single 100 mg/kg dose by oral gavage to 6 female Sprague-Dawley rats weighting 250 grams (+25 g). The animals were randomized into two experimental groups (Groups 1 and 2), each composed of 3 rats. Rats belonging to group 1 were administered with VSP034 and rats belonging to group 2 were administered with VSP035. Blood was collected at baseline and 15 min, 30 min, 1, 2, 4, 6, 8, and 24 hours after the oral gavage. The rats were sacrificed 24 hours after the dosing. Blood was collected at each timepoint from the caudal vein, with the exception of the last collection (24 hours), which was performed by intracardiac puncture at the moment of sacrifice under isoflurane anesthesia. The animals were weighted immediately before the dosing to assess the proper dose and carefully monitored during the experiment. They were kept in standard housing conditions, meeting the legal requirements for the correct housing of rodents for a period not exceeding the maximum experimental endpoints. Ad libitum access to water and food was allowed. […] Humane endpoints have not been reached. The pharmacokinetic analysis was performed using Microsoft Excel plug-in PK Solver. Pharmacokinetic parameters of two compounds are compared with the software GraphPad Prism ver. 8.0 by Student's t test for unpaired data. A p value <0.05 is considered statistically significant.\nAnalytical method: Compound analysis was performed following the bioanalytical method as in Test 13. In this study, carbamazepine was used as an internal standard.\nPharmacokinetic analysis: A pharmacokinetic analysis of VSP034 and VSP035 was performed using the Excel plug-in 2.0 PK Solver. The results have been fitted according to a non-compartmental modelling following extravascular administration. Concentration-vs-time curves for VSP034 and VSP035.\nThe main pharmacokinetic parameters (half-life, t1/2; time to maximum plasma concentration, Tmax; maximum plasma concentration, Cmax, AUC Extrapolated to Infinity, AUC0-inf; mean residence time, MRT; Apparent Volume of Distribution During Terminal Phase, Vz/F; and apparent oral clearance, CL/F) were calculated from the coefficients and exponents of the best-fits by using standard formulae."}}}
{"smiles": "Nc1ncnc2n[nH]c(Nc3ccc(F)cc3)c12", "note": "[CGP57380, reference compound]", "values": [{"measurement": "% Inhibition", "setting": "[1]", "result": 17.71, "unit": "%"}, {"measurement": "inhibitory activity against p38, JNK1, ERK1/2, PKC, or Src-like kinases", "setting": "[2]", "result": "μM, but has no inhibitory activity against"}, {"measurement": "Phosphorylation of 4E-BP1 on Ser65 and the p70S6 kinase on Thr389", "setting": "[3]", "result": "inhibited or strongly reduced"}]}
{"smiles": "COc1cc(OC)c(/C=C/S(=O)(=O)Cc2ccc(OC)c(NCC(=O)O)c2)c(OC)c1", "note": "[ON-01910.Na, reference compound]", "values": [{"measurement": "inhibition at 1.25 µM", "setting": "[1]", "result": 51.4, "unit": "%"}, {"measurement": "activity to Plk3", "setting": "Plk3", "result": "against Plk2 and no activity to Plk3."}]}
{"smiles": "CN1CCC(CN2C(=O)c3ccccc3[C@@H](C(=O)Nc3cccc(N4CCN(C)CC4)c3)[C@@H]2c2ccc(C(F)(F)F)cc2)CC1", "note": "[VSP034, (3R,4R)-N-[3-(4-methylpiperazin-1-yl)phenyl]-2-[(1-methylpiperidin-4-yl)methyl]-1-oxo-3-[4-(trifluoromethyl)phenyl]-1,2,3,4-tetrahydroisoquinoline-4-carboxamide]", "values": [{"measurement": "reduction of virus load as determined by the PCR assay", "setting": "[4]", "result": "one order of magnitude"}, {"measurement": "inhibition at 1.25 µM", "setting": "[1]", "result": 45.2, "unit": "%"}, {"measurement": "EC50", "setting": "[5]", "result": 3590, "unit": "nM"}, {"measurement": "AUC(0-inf)", "setting": "[6]; Mean", "result": 529, "unit": "ng·h/mL"}, {"measurement": "AUC(0-inf)", "setting": "[6]; Median", "result": 613, "unit": "ng·h/mL"}, {"measurement": "CL/F", "setting": "[6]; Mean", "result": 3.42, "unit": "mL/min/kg"}, {"measurement": "CL/F", "setting": "[6]; Median", "result": 2.72, "unit": "mL/min/kg"}, {"measurement": "Cmax", "setting": "[6]; Mean", "result": 89, "unit": "ng/mL"}, {"measurement": "Cmax", "setting": "[6]; Median", "result": 87.9, "unit": "ng/mL"}, {"measurement": "MRT inf", "setting": "[6]; Mean", "result": 6.72, "unit": "h"}, {"measurement": "MRT inf", "setting": "[6]; Median", "result": 6.77, "unit": "h"}, {"measurement": "Tmax", "setting": "[6]; Mean", "result": 1.17, "unit": "h"}, {"measurement": "Tmax", "setting": "[6]; Median", "result": 1, "unit": "h"}, {"measurement": "Vd/F", "setting": "[6]; Mean", "result": 1.29, "unit": "L/kg"}, {"measurement": "Vd/F", "setting": "[6]; Median", "result": 0.994, "unit": "L/kg"}, {"measurement": "half-life", "setting": "[6]; t1/2, Mean", "result": 4.33, "unit": "h"}, {"measurement": "half-life", "setting": "[6]; t1/2, Median", "result": 4.22, "unit": "h"}, {"measurement": "condition of the rats after administration of the liposomal formulation", "setting": "[6]; single 100 mg/kg oral gavage, observed 24 hours", "result": "did not show any sign of suffering or abnormal behavior"}]}
